Measurements reported in US4031198A, “Technetium-labeled complexes, production and use thereof” (priority 1974, dated 1977).

Assays:
[1] = Partition coefficient of Tc complexes, water/n-octyl alcohol, by radioactivity; type: physicochemical; conditions: water/n-octanol
Text: These partition coefficient studies involve plotting pH vs. The natural logarithm of the ratio of the activity in water to the activity in normal octyl alcohol, hereinafter referred to as ln(aw /ao). In the pH range of 5 to 8, the complex should not be so lipophilic as to have an ln(aw /ao) of less than -2, particularly at the higher pH levels. On the other hand, the hydrophilicity must also be kept within limits, as the following table illustrates:
Acid, salt, hydroxyl, amino or other polar groups present on the complexing agent molecule can provide a water solubilizing or hydrophilic effect which is reflected in higher ln aw /ao values, but due regard must be accorded to the variety of fluids, organs and tissues in mammals, each of which can have a distinctively acidic or basic environment, ranging from, for example, the low pH of the stomach to the relatively high pH of the intestines. The blood is on the mildly alkaline side at pH = 7.4. Thus, partition coefficient data on the Tc-complexes of this invention are preferably obtained throughout the pH range of 5 to 8. The use of partition coefficient data in pharmacology is well-established; see Andrejus Korolkvas, Essentials of Molecular Pharmacology, Wiley (interscience), N.Y., N.Y., 1970. […] Natural logarithms of partition coefficients are tabulated in several of the Examples which follow.
Partition coefficients for the Tc-DHT complex of this Example were determined with a water/n-octyl alcohol system over the pH range of 5 to 8 using radioactive measurements to determine the amount of Tc-99m in each phase. The expression aw /ao is the ratio of the activity in water to the activity in n-octyl alcohol. For comparison, partition coefficients over the same pH range were determined for sodium 99m pertechnetate and cysteine (HS-CH2 CH(NH2)COOH).
The aw /ao ratios for the 99mTc-4-mercaptobutanol complex were determined as in Example 1, except that two independently determined ln(aw /ao) vs. pH plots were averaged.
The aw /ao ratios for the Tc 99m complex of this Example were determined as in Example 1. The results (ln data accurate to ± 0.5) were as follows:
A series of Tc-99m complexes were made by reducing NaTcO4 and reacting the reduced Tc-99m species with the following aliphatic mercapto alcohols:
Partition coefficients were determined as in Examples 1, 3, and 5 in Tables II, III, and VI.

[2] = In vivo study of liver or gall-bladder specificity

| SMILES | Ln of partition coefficient, ln(aw /ao) ([1]; pH 5) | Ln of partition coefficient, ln(aw /ao) ([1]; pH 6) | Ln of partition coefficient, ln(aw /ao) ([1]; pH 7) | Ln of partition coefficient, ln(aw /ao) ([1]; pH 8) | logD ([1]; pH 5) | logD ([1]; pH 6) | logD ([1]; pH 7) | logD ([1]; pH 8) | liver or gall-bladder specificity [2] |
| --- | --- | --- | --- | --- | --- | --- | --- | --- | --- |
| OCCS [2-mercapto-ethanol] | -0.9 | -0.8 | -0.7 | -0.6 |  |  |  |  |  |
| OCCCCCS [5-mercapto pentanol] |  |  |  |  | -0.2 | -0.1 | -0.1 | 0 |  |
| [Na+].[O]=[99Tc](=[O])(=[O])[O-] [Na99mTcO4, sodium 99m pertechnetate, reference compound] | +3.2 | +3.3 | +3.5 | +3.6 |  |  |  |  | insufficient liver or gall-bladder specificity |

Continued, in another order:

| Ln of partition coefficient, ln(aw /ao) ([1]; pH 5) | Ln of partition coefficient, ln(aw /ao) ([1]; pH 6) | Ln of partition coefficient, ln(aw /ao) ([1]; pH 7) | Ln of partition coefficient, ln(aw /ao) ([1]; pH 8) | logD ([1]; pH 5) | logD ([1]; pH 6) | logD ([1]; pH 7) | logD ([1]; pH 8) | SMILES | liver or gall-bladder specificity [2] |
| --- | --- | --- | --- | --- | --- | --- | --- | --- | --- |
| -0.5 | -0.4 | -0.3 | -0.2 |  |  |  |  | OCCCS [3-mercapto propanol] |  |
|  |  |  |  | 1 | 1.1 | 1.2 | 1.3 | CC(C)(O)CCS [4-mercapto-2-methyl-2-butanol] |  |
